Test results: ChEMBL document CHEMBL4342491, “Development of a Versatile and Sensitive Direct Ligand Binding Assay for Human NR5A Nuclear Receptors” (ACS Med Chem Lett, 2020)
pIC50, pKd, pKi: −log10 of the molar value.

Tests used:
[1] = target: Nuclear receptor subfamily 5 group A member 2 (Homo sapiens) (UniProt O00482); test: Binding affinity to human LRH1 LBD expressed in Escherichia coli BL21 by electrophoretic mobility shift assay
[2] = target: T1, Steroidogenic factor 1 (Homo sapiens, UniProt Q13285); test: Binding affinity to human SF1 LBD (218 to 461 residues) expressed in Escherichia coli BL21 by electrophoretic mobility shift assay
[3] = target: T1, Steroidogenic factor 1
Description: Displacement of 6N-FAM from SF1 LBD (218 to 461 residues) (unknown origin) expressed in Escherichia coli BL21 pLysS by competitive binding based fluorescence polarization assay

[4] = target: T1, Steroidogenic factor 1; test: Inhibition of Gal4-fused human SF1 LBD (198 to 462 residues) expressed in CHO-K1 cells; assay type: cell-based
[5] = target: T1, Steroidogenic factor 1; test: Binding affinity to SF1 LBD (218 to 461 residues) (unknown origin) expressed in Escherichia coli BL21 pLysS measured after overnight incubation by fluorescence polarization assay

T1 sequence (Q13285 whole entry, the tested form may be a part): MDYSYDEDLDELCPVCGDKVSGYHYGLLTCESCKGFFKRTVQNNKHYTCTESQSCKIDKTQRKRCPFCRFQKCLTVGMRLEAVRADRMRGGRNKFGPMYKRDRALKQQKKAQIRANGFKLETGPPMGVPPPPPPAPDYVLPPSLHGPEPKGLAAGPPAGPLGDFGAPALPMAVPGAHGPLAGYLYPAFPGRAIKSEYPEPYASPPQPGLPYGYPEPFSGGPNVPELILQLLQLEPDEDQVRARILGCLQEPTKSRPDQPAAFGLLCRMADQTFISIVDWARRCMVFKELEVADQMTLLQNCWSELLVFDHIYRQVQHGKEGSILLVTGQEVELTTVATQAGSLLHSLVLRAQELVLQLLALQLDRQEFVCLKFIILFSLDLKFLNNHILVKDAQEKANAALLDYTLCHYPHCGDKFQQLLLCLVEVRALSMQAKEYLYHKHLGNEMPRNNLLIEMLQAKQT
Nuclear receptor subfamily 5 group A member 2 (Homo sapiens), sequence (O00482 whole entry, the tested form may be a part): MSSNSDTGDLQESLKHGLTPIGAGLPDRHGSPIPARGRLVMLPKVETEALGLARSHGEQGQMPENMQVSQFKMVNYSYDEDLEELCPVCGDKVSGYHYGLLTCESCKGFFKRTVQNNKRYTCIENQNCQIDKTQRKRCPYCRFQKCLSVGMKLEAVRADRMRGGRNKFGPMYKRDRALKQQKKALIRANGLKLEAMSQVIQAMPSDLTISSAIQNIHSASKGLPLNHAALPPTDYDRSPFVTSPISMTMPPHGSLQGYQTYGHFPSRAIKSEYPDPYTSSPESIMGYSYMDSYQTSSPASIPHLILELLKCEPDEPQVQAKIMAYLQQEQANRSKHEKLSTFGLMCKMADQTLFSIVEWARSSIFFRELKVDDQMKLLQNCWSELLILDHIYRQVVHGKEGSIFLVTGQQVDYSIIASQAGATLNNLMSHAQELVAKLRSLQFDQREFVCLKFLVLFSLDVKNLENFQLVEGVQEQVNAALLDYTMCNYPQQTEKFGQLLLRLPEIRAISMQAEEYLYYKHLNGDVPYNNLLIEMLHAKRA

Row | Compound | pKi [3] | also measured
1 | CCCC(=O)OC[C@H](COP(=O)(O)O[C@H]1[C@H](O)[C@@H](OP(=O)(O)O)[C@H](OP(=O)(O)O)[C@@H](OP(=O)(O)O)[C@H]1O)OC(=O)CCC |  | Activity [1]: 120 nM
2 | CCOC(=O)C(C)Oc1cccc2c(=O)n(CC(=O)Nc3ccc4c(c3)OCCO4)ccc12 (centres undefined) |  | pIC50 [4]: 7.52
3 | CCCCCCCCCCCC(=O)OC[C@H](COP(=O)([O-])OCC[N+](C)(C)C)OC(=O)CCCCCCCCCCC | 6.07 | 
4 | C=C(c1ccccc1)[C@@]12CC[C@H](NS(N)(=O)=O)[C@@H]1CC(CCCCCCCCCC(=O)Nc1ccc3c(c1)C(=O)OC31c3ccc(O)cc3Oc3cc(O)ccc31)=C2c1ccccc1 |  | pKd [5]: 7.91
5 | C=C(c1ccccc1)[C@@]12CC[C@H](NS(N)(=O)=O)C1CC(CCCCCC)=C2c1ccccc1 (some centres undefined) | 5.85 | 

Further lines, with some results ahead:

Row | pKi [3] | Compound | also measured
6 | 6.38 | CCCCC/C=C\C/C=C\C/C=C\C/C=C\CCCC(=O)OC(COC(=O)CCCCCCCCCCCCCCCCC)COP(=O)(O)O[C@@H]1[C@H](O)[C@H](O)[C@@H](OP(=O)(O)O)[C@H](OP(=O)(O)O)[C@H]1O (some centres undefined) | Activity [2]: 250 nM
7 | 4.46 | CCCCNC(=O)c1cc(C(C)(C)C)cc(C(C)(C)C)c1O | 
8 | 5.11 | C=C(c1ccccc1)[C@@]12CC[C@H](N)[C@@H]1CC(CCCCCCCCCC(=O)OC)=C2c1ccccc1 | 
